The text below walks through data of patent publication US7772269B2, “Pyrazole analogs” (Pfizer Inc., priority 2006, dated 2010).

Series [1] in a line: Emesis evaluation in beagle dogs. The format is in vivo. Conditions: for emesis / emesis (number of dogs): dogs. The protocol:
Experiments were undertaken to differentiate local gastrointestinal emetic stimuli during dissolution and absorption of an oral compound from emetic stimuli produced during systemic exposure through the bloodstream. […] These findings were observed after 8-12 kg purpose-bred beagle dogs were administered 4-(3-{[4-(1-methyl-1H-pyrazol-5-yl)phenyl]thio}phenyl)tetrahydro-2H-pyran-4-carboxamide by IV infusion, using a loading dose followed by a slow infusion to attain a peak blood level over 30 minutes to 1 hour in duration. More specifically, compounds were diluted in phosphate buffered saline to a concentration where 10 ml/kg total volume was administered through an intravenous catheter using an infusion pump, with approximately 90% of the total dose being delivered in the first 5 minutes, and the remaining dose administered over the next 25 minutes. Similar delivery methods to produce an exposure that approximates the systemic pharmacokinetic profile seen with oral delivery are anticipated to give similar results. More rapid methods of administration and the resultant high plasma concentrations are not anticipated to discriminate useful compounds from non-useful compounds. For example, IV bolus administration may produce a higher peak plasma concentration and systemic gastrointestinal effects than those achieved for compounds that following absorption from the GI tract, would have acceptable peak plasma concentrations and therapeutic efficacy. […] Periodic serum and plasma samples were obtained during the first 6 hours to document systemic inhibition of the 5-lipoxygenase enzyme as well as exposure levels of the compound. […] In one study, 4-(3-(4-(2-methyl-1H-imidazol-1-yl)phenylthio)phenyl)-tetrahydro-2H-pyran-4-carboxamide was administered intravenously at 10 mg/kg, 30 mg/kg and 60 mg/kg as well as 30 mg per kg by the oral route. […] In another experiment, 4-(3-{[4-(1-methyl-1H-pyrazol-5-yl)phenyl]thio}phenyl)tetrahydro-2H-pyran-4-carboxamide was administered orally at doses of 100 mg per kg, 300 mg per kg, and 600 mg per kg, with emesis only observed in 2 dogs at 100 mg per kg and one dog at 300 mg per kg.

The conditions of series [2]: clinical trial; cited from earlier work.
The target of series [3] is T1, 5-LO (Rattus norvegicus, UniProt P12527).
T1 construct: from tissue; host or cells: rat air pouch (Lewis rat, in vivo)
T1 sequence (P12527 1-673): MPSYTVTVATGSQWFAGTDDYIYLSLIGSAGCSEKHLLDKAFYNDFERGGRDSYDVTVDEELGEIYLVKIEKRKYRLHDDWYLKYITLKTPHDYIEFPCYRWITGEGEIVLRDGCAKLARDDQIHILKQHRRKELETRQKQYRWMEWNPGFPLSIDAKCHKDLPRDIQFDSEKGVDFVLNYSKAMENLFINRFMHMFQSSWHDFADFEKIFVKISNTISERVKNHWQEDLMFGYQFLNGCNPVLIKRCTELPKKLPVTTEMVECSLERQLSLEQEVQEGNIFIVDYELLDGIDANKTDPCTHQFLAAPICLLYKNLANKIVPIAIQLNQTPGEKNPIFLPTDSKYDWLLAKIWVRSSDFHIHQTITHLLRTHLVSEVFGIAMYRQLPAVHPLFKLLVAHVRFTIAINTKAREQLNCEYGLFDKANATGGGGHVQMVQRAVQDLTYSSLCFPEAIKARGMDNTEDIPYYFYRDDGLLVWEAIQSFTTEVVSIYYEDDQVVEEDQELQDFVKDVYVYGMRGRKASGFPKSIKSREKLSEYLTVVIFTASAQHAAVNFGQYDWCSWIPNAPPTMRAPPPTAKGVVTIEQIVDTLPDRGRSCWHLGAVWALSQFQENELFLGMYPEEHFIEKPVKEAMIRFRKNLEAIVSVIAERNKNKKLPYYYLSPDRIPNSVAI
As to the kind of experiment: Carrageenan-induced eicosanoid production in the rat air pouch. The class given is in vivo. As to conditions: leukotriene levels in rat air pouch fluid, lower % = higher activity. Here is the method: For a correct interpretation of the results, it is noted that the lower the % of control, the higher the activity of a test compound. Male Lewis rats (175-200 g), Charles River Laboratories, Wilmington, Mass.) were used in the study. Air pouches were produced by subcutaneous injection of 20 ml of sterile air into the intrascapular area of the back. Pouches were allowed to develop for 1 day. Animals (6 per group) were fasted with free access to water for 16 to 24 hours prior to drug administration. Drugs or vehicle were administered by gavage 1 hour prior to injection of 2 ml of a 1% suspension of carrageenan (FMC BioPolymer, Philadelphia, Pa., Cat. # GP209-NF) dissolved in saline into the pouch. At 3 hours post-carrageenan injection, 1 ml of 50 μg/ml calcium ionophore in saline (A23187, Sigma Chemical Co, St. Louis, M, Cat. #C-7522) was injected into the pouch and the pouch fluid collected 10 minutes later by lavage. The fluid was centrifuged at 3500 rpm for 10 minutes at 4° C., and the supernatants were collected for analysis. Leukotriene levels were quantitated by ELISA according to the manufacturer's directions (Cayman Chemical Company, Ann Arbor, Mich.).

The target of series [4] is T2, 5-LO (Homo sapiens, UniProt P09917).
T2 sequence (P09917 1-674): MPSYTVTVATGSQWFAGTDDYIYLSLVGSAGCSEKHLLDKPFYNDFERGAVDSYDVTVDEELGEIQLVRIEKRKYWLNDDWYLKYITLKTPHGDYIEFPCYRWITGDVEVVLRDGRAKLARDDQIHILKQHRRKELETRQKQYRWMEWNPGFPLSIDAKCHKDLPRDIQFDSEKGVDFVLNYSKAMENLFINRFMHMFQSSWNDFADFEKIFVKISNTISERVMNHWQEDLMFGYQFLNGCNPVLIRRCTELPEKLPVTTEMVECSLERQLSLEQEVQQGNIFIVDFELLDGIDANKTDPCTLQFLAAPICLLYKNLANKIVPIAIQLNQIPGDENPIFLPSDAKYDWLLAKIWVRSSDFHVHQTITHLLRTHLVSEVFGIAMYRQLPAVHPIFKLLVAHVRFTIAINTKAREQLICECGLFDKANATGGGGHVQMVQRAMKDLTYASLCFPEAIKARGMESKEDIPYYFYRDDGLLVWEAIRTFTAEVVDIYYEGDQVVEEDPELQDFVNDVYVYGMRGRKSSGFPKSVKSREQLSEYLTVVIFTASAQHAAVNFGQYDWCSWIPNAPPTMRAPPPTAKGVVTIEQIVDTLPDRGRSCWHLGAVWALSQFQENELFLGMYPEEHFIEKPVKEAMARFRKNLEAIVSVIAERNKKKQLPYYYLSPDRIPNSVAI
In words: Fluorescence Intensity 5-LO Enzyme Assay. The format is biochemical. As to conditions: recombinant human 5-LO crude lysate, H2DCFDA oxidation, 3 μM arachidonic acid. Here is the method:
The enzyme assay is based on the oxidation of the non-fluorescent compound 2′,7′-dichlorodihydrofluorescein diacetate (H2DCFDA) to the fluorescent 2′,7′ dichlorofluorescein by 5-LO in an arachidonic acid-dependent reaction. Ester cleavage of the acetate groups of the substrate H2DCFDA must occur prior to oxidation. This is achieved through use of a crude cell lysate preparation of recombinant human 5-LO. The enzyme assay ([…]) contained 50 mM Tris (pH 7.5), 2 mM CaCl2, 2 mM EDTA, 3 μM arachidonic acid (Nu-Chek Prep; #S-1133), 10 μM ATP, 10 μM H2DCFDA (Invitrogen; #D399), inhibitor (varying concentration) and recombinant human 5-LO enzyme (1.25 μL crude lysate per well).
Inhibitors (dissolved in DMSO) were plated into a 384-well assay plate (Corning #3654) at 1 μL followed by a 20 μL addition of a solution containing 5-LO enzyme and H2DCFDA. Enzyme and H2DCFDA were pre-incubated for 5 minutes to allow time for acetate group cleavage of the dye prior to addition to the assay plate. After a 10 minute preincubation of inhibitor and enzyme/dye mix, the assay was initiated by the addition of a substrate solution containing arachidonic acid and ATP. The enzymatic reaction was run for 20 min at room temperature and terminated by the addition of 40 μL of acetonitrile. Assay plates were read in a plate reader using standard wavelengths for fluorescein. […]

Series [5] deals with T2, 5-LO. In words: Eicosanoid production from human whole blood (HWB/LTB4: ionophore induced LTB4). The class given is cell-based. Also on record: from tissue; host or cells: pooled human whole blood. Here is the method: Human whole blood was collected from healthy or asthmatic human donors in 10 ml heparinized tubes (Vacutainer tubes; Becton Dickenson, Franklin Lakes, N.J.). Collected blood was pooled and 80 μl was dispensed into each well of 384 well polypropylene plates using a Multi-Drop™ 384-well dispenser (Titertek, Huntsville, Ala.). Varying concentrations of compounds were dissolved in DMSO then 2 μl/well was added to the blood using a PlateMate Plus™ automated pipetting station (Matrix Technologies, Hudson, N.H.). The compounds were preincubated with the blood at room temperature for 10 minutes followed by stimulation with 40 μl calcium ionophore (A23187, Sigma Chemical Co, St. Louis, Mo., Cat. # C-7522) and 30 μl arachidonic acid (S-1133, NU-Chek PREP, Inc., Elysian, MN, Cat. # S-1133) dissolved in 60% ethanol. After 15 min incubation at 37° C. in a shallow water bath, the blood was centrifuged at 800 g for 10 minutes at 4° C., the supernatants collected, and leukotriene and prostaglandin levels measured by ELISA according to the manufacturer's directions (Cayman Chemical Company, Ann Arbor, Mich.). The assay was performed at a final concentration of 2.5% DMSO. Results of this assay are shown as follows:
HWB/LTB4: Ionophore Induced LTB4 from Human Whole Blood

In another series the test system is 5-lipoxygenase enzyme. In words: Systemic inhibition of the 5-lipoxygenase enzyme in dogs (emesis study). The class given is in vivo, beagle dogs. As to conditions: 5 mg/kg IV. The protocol: Experiments were undertaken to differentiate local gastrointestinal emetic stimuli during dissolution and absorption of an oral compound from emetic stimuli produced during systemic exposure through the bloodstream. […] These findings were observed after 8-12 kg purpose-bred beagle dogs were administered 4-(3-{[4-(1-methyl-1H-pyrazol-5-yl)phenyl]thio}phenyl)tetrahydro-2H-pyran-4-carboxamide by IV infusion, using a loading dose followed by a slow infusion to attain a peak blood level over 30 minutes to 1 hour in duration. More specifically, compounds were diluted in phosphate buffered saline to a concentration where 10 ml/kg total volume was administered through an intravenous catheter using an infusion pump, with approximately 90% of the total dose being delivered in the first 5 minutes, and the remaining dose administered over the next 25 minutes. Similar delivery methods to produce an exposure that approximates the systemic pharmacokinetic profile seen with oral delivery are anticipated to give similar results. More rapid methods of administration and the resultant high plasma concentrations are not anticipated to discriminate useful compounds from non-useful compounds. […]

`Cc1nccn1-c1ccc(Sc2cccc(C3(C(N)=O)CCOCC3)c2)cc1` [4-(3-(4-(2-methyl-1H-imidazol-1-yl)phenylthio)phenyl)-tetrahydro-2H-pyran-4-carboxamide, reference compound]: the emesis result in series [1] (intravenously at 10, 30 and 60 mg/kg and 30 mg per kg oral) is “Emesis was observed in all dogs”. For the same molecule, in series [2], the nausea or emesis is on record as 30 % of human subjects.
In general, IC50 refers to the concentration that gives 50% inhibition. One may read the IC80 as the concentration needed for an effect of 80%. Low values mean greater potency, high ones weaker potency. As usually defined, the IC90 is the concentration needed for an effect of 90%. Higher therefore signals weaker potency. With `Cn1nccc1-c1ccc(Sc2cccc(C3(C(N)=O)CCOCC3)c2)cc1F` [(Ia), 4-(3-{[3-fluoro-4-(1-methyl-1H-pyrazol-5-yl)phenyl]thio}phenyl)tetrahydro-2H-pyran-4-carboxamide], the “% of Control” value on 5-LO [3] (dose 1 mg/kg by gavage) is 25.74 % of Control; at 5-LO [3] (dose 3 mg/kg by gavage), 0 % of Control; on 5-LO [3] (dose 10 mg/kg by gavage), 0 % of Control. Further, the IC50 at 5-LO [4] is 0.204 µM; against 5-LO [5] it was 0.152 µM. At 5-LO [5], this molecule came in with a concentration for an effect of 80% (IC80) of 0.357 µM. In addition, at 5-LO [5], the 90% effect level (IC90) was put at 1.31 µM.
In the case of `Cn1nccc1-c1ccc(Sc2cccc(C3(C(N)=O)CCOCC3)c2)cc1` [(Ib), 4-(3-{[4-(1-methyl-1H-pyrazol-5-yl)phenyl]thio}phenyl)tetrahydro-2H-pyran-4-carboxamide], the “% of Control” value was 20.24 % of Control at 5-LO [3] (dose 1 mg/kg by gavage); 5.23 % of Control on 5-LO [3] (dose 3 mg/kg by gavage, 3 mg/kg); 20 % of Control at 5-LO [3] (dose 3 mg/kg by gavage, listed as 4-(3-{[4-(1-methyl-1H-pyrazol-5-yl)phenyl]thio}phenyl)tetrahydro-2H-pyran-4-carb, 3 mg/kg); 2.30 % of Control on 5-LO [3] (dose 10 mg/kg by gavage). Further, the results for the IC50 at 5-LO [4] and against 5-LO [5] were 0.229 µM and 0.135 µM, respectively. Moreover, the “inhibition of the 5-LO enzyme” value in the series on 5-lipoxygenase enzyme is listed as 100%. In addition, the nausea and emesis result in series [1] (beagle dogs, IV infusion (loading dose followed by slow infusion)) is “produce nausea and emesis through systemic exposure”. Also, the emesis result was “no observed emesis” in series [1] (5 mg/kg IV); “No emesis was observed” in series [1] (another experiment, oral 600 mg per kg); “emesis in only one dog at 100 mg per kg” in series [1] (oral route, doses of 10 and 100 mg per kg). Further, the “emesis (number of dogs)” value is 2 dogs in series [1] (another experiment, oral 100 mg per kg) and “one dog” in series [1] (another experiment, oral 300 mg per kg). This molecule also had an IC80 against 5-LO [5] of 0.397 µM. Further, it took 0.716 µM to reach the 90% level against 5-LO [5] (IC90).
